Measurements as given in US9593305B2, “Differentiation of pluripotent stem cells” (Janssen Biotech, Inc., priority 2008, dated 2017).

Legend:
[1] = test system: CDK, GSK3, and/or TRK signaling pathways; assay: Primary selectivity of the proprietary small molecules (Table 16); conditions: as listed in Table 17
Experimental: A subset of 14 proprietary small molecules, known to have specificity for the CDK, GSK3, and/or TRK signaling pathways were evaluated for their potential to differentiate human embryonic stem cells to cells expressing markers characteristic of the definitive endoderm lineage.

[2] = test system: H1 human embryonic stem cells; assay: Screen of CDK, GSK3 and TRK inhibitors with or without GDF-8, SOX17 and cell number (Example 20, Table 17); format: cell-based; conditions: Plate 1; for Cell Number, % of positive control / Sox17 Expression, % of positive control: positive control = Activin A/Wnt3a
Experimental: Briefly, clusters of H1 human embryonic stem cells were grown on reduced growth factor Matrigel™ (Invitrogen; Cat #356231) coated tissue culture plastic. Cells were passaged using collagenase (Invitrogen; Cat #17104-019) treatment and gentle scraping, washed to remove residual enzyme, and plated with even dispersal at a ratio of 1:1 (surface area) on reduced growth factor […]™ (BD Biosciences; Cat #356231)-coated 96-well black plates (Packard ViewPlates; PerkinElmer; Cat #6005182) using volumes of 100 μl/well. Cells were allowed to attach and then recover log phase growth over a 1 to 3 day time period, feeding daily with MEF conditioned medium supplemented with 8 ng/ml bFGF (R&D Systems; Cat #233-FB). Plates were maintained at 37° C., 5% CO2 in a humidified box throughout the duration of assay.
Screening was conducted using the compounds described in Table 16. […] Compounds were made available as 5 mM stocks in 96-well plate format, solubilized in 100% DMSO (Sigma; Cat #D2650) and stored at −80° C. The library compounds were further diluted to an intermediate concentration of 0.2 mM in 50 mM HEPES (Invitrogen; Cat #15630-080), 20% DMSO and stored at 4° C. Test conditions were performed in triplicate, feeding on alternating days over a four-day assay period. Assay was initiated by aspirating culture medium from each well followed by three washes in PBS (Invitrogen; Cat #14190) to remove residual growth factors. On the first day of assay, test volumes of 200 μl per well were added to each well using DMEM:F12 base medium (Invitrogen; Cat #11330-032) supplemented with 0.5% FCS (HyClone; Cat #SH30070.03) and 100 ng/ml GDF-8 (R&D Systems, Cat #788-G8) plus 2.5 μM compound. A parallel set of test samples were treated in an identical manner but omitting GDF-8 from the medium. On the third day of assay, test volumes of 100 μper well were added to each well using DMEM:F12 base medium supplemented with 2% FCS plus 100 ng/ml GDF-8 (R&D Systems, Cat #788-G8). […] Positive control samples contained the same base medium supplemented with FCS and 100 ng/ml recombinant human activin A (PeproTech; Cat #120-14) throughout the four day assay along with Wnt3a (20 ng/ml) addition on days 1 and 2. Negative control samples contained DMEM:F12 base medium supplemented with FCS.
At the conclusion of four-days of culture, assay plates were washed twice with PBS (Invitrogen; Cat #14190), fixed with 4% paraformaldehyde (Alexis Biochemical; Cat #ALX-350-011) at room temperature for 20 minutes, then washed three times with PBS and permeabilized with 0.5% Triton X-100 (Sigma; Cat #T8760-2) for 20 minutes at room temperature. Cells were washed again three times with PBS and blocked with 4% chicken serum (Invitrogen; Cat #16110082) in PBS for 30 minutes at room temperature. Primary antibody (goat anti-human SOX17; R&D Systems; Cat #AF1924) was diluted 1:100 in 4% chicken serum and added to each well for one hour at room temperature. Alexa Fluor 488 conjugated secondary antibody (chicken anti-goat IgG; Molecular Probes; Cat #AZ1467) was diluted 1:200 in PBS and added to each sample well after washing three times with PBS. To counterstain nuclei, 4 μg/ml Hoechst 33342 (Invitrogen; Cat #H3570) was added for ten minutes at room temperature. Plates were washed once with PBS and left in 100 μl/well PBS for imaging.
Imaging was performed using an IN Cell Analyzer 1000 (GE Healthcare) utilizing the 51008bs dichroic for cells stained with Hoechst 33342 and Alexa Fluor 488. Exposure times were optimized from positive control wells and from untreated negative control wells stained with secondary antibody alone. Images from 15 fields per well were acquired to compensate for any cell loss during the bioassay and subsequent staining procedures. Measurements for total cell number and total SOX17 intensity were obtained from each well using IN Cell Developer Toolbox 1.7 (GE Healthcare) software. […]

[3] = compound in combination with GDF8

`O=C1COc2cccc(c2)Nc2nccc(n2)Nc2cccc(c2)OCCCN1` [Compound 42, 14,21-Dioxa-2,4,8,18,28-pentaazatetracyclo[20.3.1.1˜3,7˜0.1˜9,13˜]octacosa-1(26), 3(28), 4,6,9(27), 10,12,22,24-nonaen-19-one] was tested, and the “Compound Selectivity” value [1] was “Selective for CDK”, the “Cell Number, Average Total Cell Number” value ([2]; compound alone, No GDF8) was 8700 and the “Sox17 Expression, Average Total Intensity” value ([2]; compound alone, No GDF8) was −2.4E+05. For the same compound, the “Cell Number, % of positive control” value ([2]; compound alone, No GDF8) was 60.1 % of positive control, the “Sox17 Expression, % of positive control” value ([2]; compound alone, No GDF8) was −0.1 % of positive control and the “Cell Number, Average Total Cell Number” value [2, 3] was 5686. For the same compound, the “Sox17 Expression, Average Total Intensity” value [2, 3] was 4.9E+07, the “Cell Number, % of positive control” value [2, 3] was 39.3 % of positive control and the “Sox17 Expression, % of positive control” value [2, 3] was 21.2 % of positive control.
For `CN1CCCc2cccc(c2)-c2nnc([nH]2)Nc2cccc(c2)CN2CCN(CC2)C(=O)C1` [Compound 43, 21-Methyl-1,8,10,11,21,24,30-heptaazapentacyclo[22.2.2.1˜3,7˜0.1˜9,12˜0.1˜13,17˜]hentriaconta-3(31). 4,6,9,11,13(29), 14,16-octaen-23-one], the “Compound Selectivity” value [1] was “Selective for Trk”, the “Cell Number, Average Total Cell Number” value ([2]; compound alone, No GDF8) was 8610 and the “Sox17 Expression, Average Total Intensity” value ([2]; compound alone, No GDF8) was −2.1E+05. For the same compound, the “Cell Number, % of positive control” value ([2]; compound alone, No GDF8) was 59.5 % of positive control, the “Sox17 Expression, % of positive control” value ([2]; compound alone, No GDF8) was −0.1 % of positive control and the “Cell Number, Average Total Cell Number” value [2, 3] was 6682. The “Sox17 Expression, Average Total Intensity” value [2, 3] was 5.4E+07, the “Cell Number, % of positive control” value [2, 3] was 46.2 % of positive control and the “Sox17 Expression, % of positive control” value [2, 3] was 23.4 % of positive control.
For `O=C1NCc2cccc(c2)-c2ccnc(n2)Nc2ccc(C(=O)N3CCOCC3)c(c2)CN2CCC[C@@H]12` [Compound 44, (18S)-11-(Morpholin-4-ylcarbonyl)-5,7,14,20,28-pentaazapentacyclo[20.3.1.1˜2,6˜0.1˜8,12˜0.0˜14,18˜]octacosa-1(26), 2(28), 3,5,8(27), 9,11,22,24-nonaen-19-one], the “Compound Selectivity” value [1] was “Selective for GSK”, the “Cell Number, Average Total Cell Number” value ([2]; compound alone, No GDF8) was 14 and the “Sox17 Expression, Average Total Intensity” value ([2]; compound alone, No GDF8) was −1.1E+06. For the same compound, the “Cell Number, % of positive control” value ([2]; compound alone, No GDF8) was 0.1 % of positive control, the “Sox17 Expression, % of positive control” value ([2]; compound alone, No GDF8) was −0.5 % of positive control and the “Cell Number, Average Total Cell Number” value [2, 3] was 226. For the same compound, the “Sox17 Expression, Average Total Intensity” value [2, 3] was −9.5E+05, the “Cell Number, % of positive control” value [2, 3] was 1.6 % of positive control and the “Sox17 Expression, % of positive control” value [2, 3] was −0.4 % of positive control.
With `COc1ccc2cc1OCCCC(=O)N(C)CC1CN(Cc3c[nH]c4ncnc(c34)N2)C1` [Compound 45, 10-Methoxy-17-methyl-2,14,15,17,18,19,20,22-octahydro-6H-1-19.21 methano-7,11-(metheno)-12-oxa-2,3,5,6,17,21-hexaazacycloicosa[1,2,3-cd]inden-16(13H)-one] the “Compound Selectivity” value [1] was “Selective for Trk”, the “Cell Number, Average Total Cell Number” value ([2]; compound alone, No GDF8) was 8857 and the “Sox17 Expression, Average Total Intensity” value ([2]; compound alone, No GDF8) was −4.5E+05. For the same compound, the “Cell Number, % of positive control” value ([2]; compound alone, No GDF8) was 61.2 % of positive control, the “Sox17 Expression, % of positive control” value ([2]; compound alone, No GDF8) was −0.2 % of positive control and the “Cell Number, Average Total Cell Number” value [2, 3] was 9540. For the same compound, the “Sox17 Expression, Average Total Intensity” value [2, 3] was 1.1E+08, the “Cell Number, % of positive control” value [2, 3] was 65.9 % of positive control and the “Sox17 Expression, % of positive control” value [2, 3] was 47.9 % of positive control.
`CN(C)CCNC(=O)c1ccc(-c2cnc3ccc(NCc4cccc(Cl)c4)nn23)cc1` [Compound 57, 4-(6-{[(3-Chlorophenyl)methyl]amino}imidazo[1,2-b]pyridazin-3-yl)-N-[2-(dimethylamino)ethyl]benzamide] was tested, and the “Compound Selectivity” value [1] was “Selective for Trk”, the “Cell Number, Average Total Cell Number” value ([2]; compound alone, No GDF8) was 1222 and the “Sox17 Expression, Average Total Intensity” value ([2]; compound alone, No GDF8) was −7.1E+05. The “Cell Number, % of positive control” value ([2]; compound alone, No GDF8) was 8.4 % of positive control, the “Sox17 Expression, % of positive control” value ([2]; compound alone, No GDF8) was −0.3 % of positive control and the “Cell Number, Average Total Cell Number” value [2, 3] was 2110. For the same compound, the “Sox17 Expression, Average Total Intensity” value [2, 3] was 1.1E+07, the “Cell Number, % of positive control” value [2, 3] was 14.6 % of positive control and the “Sox17 Expression, % of positive control” value [2, 3] was 4.8 % of positive control.
